The subject of data set [1] is HCC1806. In words: Antiproliferative activity against human HCC1806 cells assessed as inhibition of cell proliferation at 1 uM incubated for 24 hrs by SRB assay relative to control. The data set is classed as functional. For orientation: Sulforhodamine B stains cellular protein and so reports cell mass.
The test system of data set [2] is HCC1806. As to the kind of experiment: Antiproliferative activity against human HCC1806 cells assessed as inhibition of cell proliferation incubated for 24 hrs by SRB assay. The data set is classed as functional, cell-based. Particulars: HCC1806, 24 h.
Data set [3] concerns HCC1806. In words: Induction of morphological changes in human HCC1806 cells assessed as rate of intracellular vacuolization at 1 uM incubated for 24 hrs by microscopic analysis relative to control. The format is functional.
Data set [4] deals with HCC1806. As to the kind of experiment: Antiproliferative activity against human HCC1806 cells assessed as inhibition of cell proliferation at 2 uM incubated for 24 hrs by SRB assay relative to control. The data set is classed as functional.
In a further data set the test system is 184B5. As to the kind of experiment: Cytotoxicity against human 184B5 cells assessed as reduction in cell viability at 2 uM incubated for 24 hrs by SRB assay. The format is toxicity, cell-based. Particulars: 184b5, 24 h.

Broadly, the inhibition is the percentage by which the read-out fell short of the control. By IC50 is commonly meant the concentration needed to halve the response being measured. For `COc1cc(Nc2nc(N3CCNCC3)ncc2Cl)ccc1NC(=O)c1cccc(Br)n1`, the inhibition at 1 µM with HCC1806 [1] is 99.2%. The IC50 in the data set on HCC1806 [2] was 590 nM. The Activity was 42.33% with HCC1806 [3] and “Toxic” in the data set with 184B5. Moreover, the inhibition at 2 µM in the data set with HCC1806 [4] amounted to 10.7%. For `COc1cnc(N2CCNCC2)nc1Nc1ccc(NC(=O)Cc2cccs2)cc1C(F)(F)F`, the inhibition at 1 µM in the data set with HCC1806 [1] was 6.92%. Same read-out and setting: the value for `COc1cc(Nc2cc(N3CCNCC3)nc(SC)n2)ccc1NC(=O)c1cccc(Br)n1` was 11.1%. In the case of `COc1cc(Nc2nc(N3CCNCC3)ncc2OC)ccc1NC(=O)c1cccc(Br)n1`, in the data set on HCC1806 [1], the inhibition at 1 µM was found to be 99.3%. The IC50 in the data set on HCC1806 [2] is 770 nM. The Activity with HCC1806 [3] was 26.5%; with 184B5 it was “Non-Toxic”. Moreover, in the data set on HCC1806 [4], the inhibition at 2 µM worked out at 59.9%. With `COc1cc(NC(=O)c2cccc(Br)n2)ccc1Nc1nc(N2CCNCC2)ncc1OC`, the inhibition at 1 µM in the data set with HCC1806 [1] came out at 97.4%. Moreover, the half-inhibitory concentration (IC50) in the data set on HCC1806 [2] amounted to 970 nM. In addition, the Activity in the data set on HCC1806 [3] is 30.17%; in the data set on 184B5, “Toxic”. In addition, the inhibition at 2 µM in the data set on HCC1806 [4] was 10.4%. Consider `COc1cc(Nc2cc(N3CCNCC3)ncn2)ccc1NC(=O)c1cccc(Br)n1`, for which the inhibition at 1 µM in the data set with HCC1806 [1] is 11.5%. Consider `COc1cnc(N2CCNCC2)nc1Nc1ccc(NC(=O)c2cccc(Br)n2)cc1OC(F)(F)F`, for which the inhibition at 1 µM with HCC1806 [1] was found to be 84.8%.

Regarding `COc1cnc(N2CCNCC2)nc1Nc1ccc(NC(=O)c2cccs2)cc1C(F)(F)F`, in the data set on HCC1806 [1], the inhibition at 1 µM came to 4.93%. The same measure, in the same setting: the result for `COc1cc(Nc2nc(N3CCC(OC)CC3)ncc2OC)ccc1NC(=O)c1cccc(Br)n1` reads 7.54%; that for `COc1cc(Nc2nc(N3CCOCC3)ncc2OC)ccc1NC(=O)c1cccc(Br)n1`, 1.41%; that for `COc1cnc(N2CCNCC2)nc1Nc1ccc(NC(=O)c2cccc(Br)c2)cc1C(F)(F)F`, 8.87%.

As for `COc1cnc(N2CCNCC2)nc1Nc1ccc(NC(=O)c2cccc(C)n2)cc1C(F)(F)F`, the inhibition at 1 µM in the data set on HCC1806 [1] turned out to be 11.2%. Consider `COc1cnc(N2CCNCC2)nc1Nc1ccc(NC(=O)c2ccco2)cc1C(F)(F)F`, for which, in the data set with HCC1806 [1], the inhibition at 1 µM stood at 1.86%. In the case of `COc1cnc(N2CCNCC2)nc1Nc1ccc(NC(=O)c2ccc3ccccc3n2)cc1C(F)(F)F`, the inhibition at 1 µM in the data set with HCC1806 [1] stood at 13.3%.

In the case of `COc1cnc(N2CCNCC2)nc1Nc1ccc(NC(=O)c2cccc(Cl)n2)cc1C(F)(F)F`, the inhibition at 1 µM with HCC1806 [1] is 94.1%. Besides, in the data set on HCC1806 [2], the IC50 worked out at 370 nM. In addition, the Activity is reported as 36.83% in the data set with HCC1806 [3] and “Non-Toxic” in the data set on 184B5. The inhibition at 2 µM in the data set with HCC1806 [4] came out at 52.9%.

Turning to `COc1cc(Nc2nc(N3C[C@@H](C)O[C@@H](C)C3)ncc2OC)ccc1NC(=O)c1cccc(Br)n1`, the inhibition at 1 µM with HCC1806 [1] came to 8.34%. As to `COc1cnc(N2CCNCC2)nc1Nc1ccc(NC(=O)c2cccc(Br)n2)cc1C#N`, the inhibition at 1 µM in the data set with HCC1806 [1] came to 99%. Also, the half-maximal inhibitory concentration (IC50) in the data set on HCC1806 [2] was 890 nM. The Activity is reported as 39.5% in the data set with HCC1806 [3] and “Toxic” in the data set with 184B5. Moreover, the inhibition at 2 µM in the data set with HCC1806 [4] is 12.6%. In the case of `COc1cnc(N2CCNCC2)nc1Nc1ccc(NC(=O)c2ccccn2)cc1C(F)(F)F`, in the data set with HCC1806 [1], the inhibition at 1 µM amounted to 4.52%. For the compound `COc1cnc(N2CCNCC2)nc1Nc1ccc(NC(=O)c2ncccc2Br)cc1C(F)(F)F`, the inhibition at 1 µM with HCC1806 [1] was 6.13%.

With `COc1cnc(N2CCNCC2)nc1Nc1ccc(NC(=O)c2cc(Br)ccn2)cc1C(F)(F)F`, the inhibition at 1 µM in the data set with HCC1806 [1] was 12.3%. On the same count and under the same terms, the value for `COc1cc(Nc2ncnc(N3CCNCC3)n2)ccc1NC(=O)c1cccc(Br)n1` was 10.8%.

With `COc1cnc(N2CCNCC2)nc1Nc1ccc(NC(=O)c2cccc(Br)n2)cc1C(F)(F)F`, in the data set with HCC1806 [1], the inhibition at 1 µM is 99%. In the data set with HCC1806 [2], the IC50 came to 580 nM. The Activity is given as 41.5% in the data set with HCC1806 [3] and “Non-Toxic” in the data set on 184B5. Further, the inhibition at 2 µM in the data set with HCC1806 [4] stood at 71.7%.

In the case of `COc1cnc(N2CCNCC2)nc1Nc1ccc(NC(=O)c2ccncn2)cc1C(F)(F)F`, the inhibition at 1 µM in the data set with HCC1806 [1] amounted to 6.52%. With `COc1cnc(N2CCNCC2)nc1Nc1ccc(NC(=O)c2cccc(F)n2)cc1C(F)(F)F`, the inhibition at 1 µM in the data set on HCC1806 [1] stood at 4.48%. In the case of `COc1nc(Nc2ccc(NC(=O)c3cccc(Br)n3)c(OC)c2)nc(N2CCNCC2)n1`, the inhibition at 1 µM in the data set on HCC1806 [1] was 4.27%.

Consider `COc1cnc(N2CCNCC2)nc1Nc1cc(C)c(NC(=O)c2cccc(Br)n2)cc1C`, for which the inhibition at 1 µM with HCC1806 [1] turned out to be 98.9%. The IC50 in the data set on HCC1806 [2] was found to be 870 nM. Besides, the Activity in the data set on HCC1806 [3] is reported as 42.33%; in the data set with 184B5 it was “Toxic”. Further, the inhibition at 2 µM with HCC1806 [4] stood at 6.93%. Take `COc1cnc(N2CCNCC2)nc1Nc1ccc(NC(=O)c2cccc(Br)n2)cc1C`: in the data set on HCC1806 [1], the inhibition at 1 µM was 3.6%.

In the case of `COc1cc(Nc2nc(N3CCNCC3)ncc2Br)ccc1NC(=O)c1cccc(Br)n1`, the inhibition at 1 µM with HCC1806 [1] came to 99.3%. The IC50 in the data set on HCC1806 [2] was determined as 420 nM. For the same compound, the Activity was 65% with HCC1806 [3] and “Non-Toxic” with 184B5. In addition, the inhibition at 2 µM with HCC1806 [4] came to 38.1%.

In the case of `COc1cnc(N2CCNCC2)nc1Nc1ccc(NC(=O)c2cccc(Br)n2)c(C)c1`, in the data set with HCC1806 [1], the inhibition at 1 µM was found to be 23.3%. Turning to `COc1cc(Nc2ccnc(N3CCNCC3)n2)ccc1NC(=O)c1cccc(Br)n1`, the inhibition at 1 µM in the data set with HCC1806 [1] worked out at 10.6%. Regarding `COc1cnc(N2CCNCC2)nc1Nc1ccc(NC(=O)c2ccncc2)cc1C(F)(F)F`, the inhibition at 1 µM with HCC1806 [1] is 9.77%.

For the compound `COc1cnc(N2CCNCC2)nc1Nc1ccc(NC(=O)c2cccnc2)cc1C(F)(F)F`, the inhibition at 1 µM in the data set with HCC1806 [1] amounted to 4.54%. As to `COc1cnc(N2CCNCC2)nc1Nc1ccc(NC(=O)c2cccc(Br)n2)cn1`, the inhibition at 1 µM in the data set on HCC1806 [1] turned out to be 9.96%. In the case of `COc1cnc(N2CCNCC2)nc1Nc1ccc(NC(=O)c2cccc(Br)n2)cc1`, in the data set on HCC1806 [1], the inhibition at 1 µM was 17.4%.
